According to the CheMixHub ionic liquid set:

Test: xn = mol fraction of the nth substance listed

C[N+](C)(C)Cc1ccccc1.[Cl-] + O=C([O-])c1ccccc1.[Na+] + O
viscosity [mPa·s], 100 kPa
Conditions | 298.15 K | 303.15 K | 308.15 K | 313.15 K | 318.15 K
x1 = 9.698e-05, x2 = 0.001545 | 0.924 | 0.835 | 0.753 | 0.654 | 0.566
x1 = 9.701e-05, x2 = 0.00127 | 0.919 | 0.829 | 0.748 | 0.65 | 0.562
x1 = 9.703e-05, x2 = 0.0009982 | 0.913 | 0.823 | 0.742 | 0.645 | 0.558
x1 = 9.706e-05, x2 = 0.0007245 | 0.906 | 0.817 | 0.737 | 0.64 | 0.552
x1 = 9.709e-05, x2 = 0.0004525 | 0.901 | 0.812 | 0.731 | 0.635 | 0.548
x1 = 9.711e-05, x2 = 0.0001803 | 0.896 | 0.807 | 0.726 | 0.629 | 0.544
x1 = 0.0002915, x2 = 0.001548 | 0.927 | 0.84 | 0.758 | 0.652 | 0.562
x1 = 0.0002916, x2 = 0.001 | 0.915 | 0.827 | 0.747 | 0.64 | 0.554
x1 = 0.0002916, x2 = 0.001272 | 0.92 | 0.833 | 0.752 | 0.647 | 0.559
x1 = 0.0002917, x2 = 0.0007258 | 0.909 | 0.821 | 0.74 | 0.637 | 0.55
x1 = 0.0002918, x2 = 0.0004533 | 0.902 | 0.816 | 0.735 | 0.631 | 0.544
x1 = 0.0002919, x2 = 0.0001807 | 0.898 | 0.812 | 0.731 | 0.626 | 0.54
x1 = 0.0004867, x2 = 0.001551 | 0.932 | 0.843 | 0.76 | 0.665 | 0.577
x1 = 0.0004868, x2 = 0.001275 | 0.926 | 0.837 | 0.754 | 0.66 | 0.573
x1 = 0.0004869, x2 = 0.001002 | 0.919 | 0.831 | 0.748 | 0.655 | 0.569
x1 = 0.0004871, x2 = 0.0007272 | 0.913 | 0.826 | 0.743 | 0.649 | 0.563
x1 = 0.0004872, x2 = 0.0004542 | 0.908 | 0.82 | 0.737 | 0.645 | 0.559
x1 = 0.0004873, x2 = 0.000181 | 0.903 | 0.815 | 0.733 | 0.64 | 0.555

CC[n+]1ccn(C)c1.O=S(=O)([N-]S(=O)(=O)C(F)(F)F)C(F)(F)F + O=C1CCCO1
100 kPa, frequency 0.005 MHz
Conditions | electrical conductivity [S/m]
293.15 K, x2 = 0 | 0.774
293.15 K, x2 = 0.3005 | 1.17
293.15 K, x2 = 0.5101 | 1.47
293.15 K, x2 = 0.9005 | 1.58
293.15 K, x2 = 0.95 | 1.13
298.15 K, x2 = 0.2073 | 1.19
303.15 K, x2 = 0 | 1.06
303.15 K, x2 = 0.2073 | 1.34
303.15 K, x2 = 0.3005 | 1.47
303.15 K, x2 = 0.5101 | 1.79
303.15 K, x2 = 0.7 | 2.07
303.15 K, x2 = 0.7994 | 2.09
303.15 K, x2 = 0.8498 | 2.06
303.15 K, x2 = 0.95 | 1.32
308.15 K, x2 = 0 | 1.2
308.15 K, x2 = 0.7994 | 2.25
313.15 K, x2 = 0 | 1.35
313.15 K, x2 = 0.3005 | 1.77
318.15 K, x2 = 0.2073 | 1.82
318.15 K, x2 = 0.5101 | 2.31
318.15 K, x2 = 0.95 | 1.59
323.15 K, x2 = 0.2073 | 2.04
323.15 K, x2 = 0.6 | 2.69

CC[n+]1ccn(C)c1.F[B-](F)(F)F + O
298 K, 101 kPa
Conditions | electrical conductivity [S/m]
x2 = 0.78 | 8.27
x2 = 0.84 | 8.63

CO + CC[n+]1ccn(C)c1.F[B-](F)(F)F
101 kPa, x2 = 0
Conditions | viscosity [mPa·s]
303.15 K | 0.504
313.15 K | 0.442
323.15 K | 0.39
333.15 K | 0.344

CCCCCCCC[N+](CCCCCCCC)(CCCCCCCC)CCCCCCCC.[Br-] + CCCCCCCCCC(=O)O
Conditions | electrical conductivity [S/m] | viscosity [mPa·s]
293 K, 100 kPa, x1 = 0.3333 | – | 910
298 K, 100 kPa, x1 = 0.3333 | – | 650
298.1 K, 100 kPa, x1 = 0.333 | 4.5e-06 | –
303 K, 100 kPa, x1 = 0.3333 | – | 470
303.15 K, 101 kPa, x2 = 0.6667 | – | 469
313 K, 100 kPa, x1 = 0.3333 | – | 260
318.15 K, 100 kPa, x1 = 0.333 | – | 208
323.15 K, 101 kPa, x2 = 0.6667 | – | 174
333 K, 100 kPa, x1 = 0.3333 | – | 98
353.15 K, 101 kPa, x2 = 0.6667 | – | 56
